Values quoted from earlier work as cited in patent publication US11400063B2, “Early administration of low-dose colchicine after myocardial infarction” (INSTITUT DE CARDIOLOGIE DE MONTREAL, priority 2019, dated 2022).

How the values were obtained:
[1] = CIRT; cited from earlier work
stable coronary disease = conditions: CANTOS; cited from earlier work

Compound | cardiovascular outcomes or plasma markers of inflammation [1] | incidence of fatal infections (stable coronary disease) | lower risk of cardiovascular events than with placebo (stable coronary disease) [%]
CN(Cc1cnc2nc(N)nc(N)c2n1)c1ccc(C(=O)N[C@@H](CCC(=O)O)C(=O)O)cc1 [methotrexate] | did not affect |  | 
canakinumab: injectable monoclonal antibody inhibiting interleukin-1β |  | slightly higher incidence | 15
